In patent US20250368623A1, “PYRIDAZINONE-DERIVED COMPOUNDS FOR THE MODULATION OF MYC AND FOR MEDICAL USES” (GENETIC INTELLIGENCE, INC, priority 2022, published 2025):

Legend:
Assay type in all cases: cell-based
MYC protein [1] = assay: Western blot of MYC protein in human cancer cell lines; conditions: about 1 μM, 2-day incubation, e.g., A549 or HepG2, GAPDH loading control, vs DMSO
Experimental: The level of reduction of MYC protein following treatment with test compounds is also assessed by Western blot according to the following protocol. The human cancer cell lines (e.g., A549 or HepG2) are seeded at 20,000 cells per well in a 96-well plate. After 1 day, the cells are treated with test compounds at a final concentration of about 1 μM. After a 2-day incubation period, the supernatant is removed from the wells and RIPA buffer is added to create cell lysates. The lysates are analyzed by Western blot and probed with a MYC-specific antibody (e.g., Proteintech 10828-1-AP) together with a GAPDH-specific antibody (e.g., Proteintech 10494-1-AP) to serve as loading control. The intensities of Western blot bands are quantified by FIJI (Image J). The relative expression value of MYC following treatment with a test compound is calculated by dividing the intensity of the MYC band of the sample with the intensity of its own GAPDH band. The value so obtained is presented as a percentage of that of the no-compound, solvent only (DMSO)-treated sample. A lower percentage of MYC protein in a sample with respect to the DMSO-treated sample indicates greater percentage reduction in MYC protein level due to the test compound, and vice versa.

HepG2 [2] = assay: CCK-8 cell viability assay, HepG2; conditions: Homo sapiens; CCK-8, HepG2, 2-day or 3-day incubation, cytotoxic effect
Experimental: The effect of test compounds on cell viability is determined using the CCK-8 assay kit (Dojindo CK04-1000) according to the following protocol. The human cancer cell lines (e.g., A549, HepG2, JeKo-1, MDA-MB-231, etc.) and non-cancer human cell lines (e.g., HEK-293, HaCaT, etc.), are seeded at 20,000 cells per well in a 96-well plate. After 1 day, the cells are treated with test compounds at various final concentrations (e.g., 10 nM, 31.6 nM, 100 nM, 316 nM, 1 μM, 3.16 μM, 10 μM, 20 μM, etc.). After a 2-day or 3-day incubation period, 10 μL of CCK-8 solution, which contains the WST-8 dye, is added to each well according to the kit manufacturer's protocol. After incubation for 1-4 hours, the absorbance at 450 nm is measured using a microplate reader. The absorbance at 450 nm measures the amount of WST-8 that is reduced to WST-8 formazan by cellular dehydrogenases, which is directly proportional to the number of living cells. The cytotoxic effect of test compounds at different concentrations is calculated by subtracting from 1 the ratio of absorbance of the compound-treated sample at 450 nm to that of the no-compound, solvent only (DMSO)-treated sample. […] The IC50 values for the cytotoxic effect of each test compound in A549, HepG2, JeKo-1, and/or MDA-MB-231 cells are determined by plotting a dose-response curve to calculate the concentration of test compound that produces half of the maximum cytotoxic effect.

MYC protein [3] = assay: MYC HTRF assay, MYC protein level in human cell lines; conditions: about 20 μM, 2-day incubation, human cell lines (e.g., A549, HepG2), vs DMSO-treated sample
Experimental: The MYC homogenous time-resolved fluorescence (HTRF) assay kit (CisBio/Perkin Elmer 63ADK053PEG) is used to quantify the level of MYC protein in human cell lines (e.g., A549, HepG2) following treatment with test compounds, according to the following protocol. Human cells cultured in DMEM-10% FBS media are seeded at 20,000 cells per well in a 96-well plate. After 1 day, the cells are treated with test compounds at a final concentration of about 20 μM. After a 2-day incubation period, the supernatant is removed from the wells and the HTRF assay is carried out according to the kit manufacturer's protocol. In brief, lysis buffer #4 is added to create cell lysates. 10 μL of cell lysate is added to 10 μL of premixed antibody solution (anti-human My c-Eu cryptate antibody and anti-human Myc-d2 antibody) prepared in detection buffer #3 in a 384-well low-volume white-walled plated. After 3 h of incubation, fluorescence readings are taken at the emission wavelengths of donor and acceptor fluorophores (620 nm and 665 nm respectively) using a HTRF-compatible plate reader. The ratio of acceptor and donor fluorescence emission signals for each sample is calculated by dividing the fluorescence signal at 665 nm by the signal at 620 nm, and further normalized by dividing with the concentration of total protein in that sample as determined by the BCA assay. The values so obtained are presented as a percentage of that of the no-compound, solvent only (DMSO)-treated samples. A lower percentage of MYC protein in a sample with respect to the DMSO-treated sample indicates greater percentage reduction in MYC protein level due to the test compound, and vice versa.

MYC RNA = assay: RT-qPCR of MYC RNA in human cancer cell lines; conditions: 24 h, about 1 μM, 1-day incubation, e.g., A549, HepG2, beta-actin normalized, vs DMSO, read-out: % reduction of MYC RNA
Experimental: The level of reduction of MYC RNA following treatment with test compounds is assessed using RT-qPCR according to the following protocol. The human cancer cell lines (e.g., A549, HepG2) are seeded at 20,000 cells per well in a 96-well plate. After 1 day, the cells are treated with test compounds at a final concentration of about 1 μM. After a 1-day incubation period, the supernatant is removed from the wells and lysis solution from the Cells-to-CT 1-Step Power SYBR Green Kit (Invitrogen A25599) is added to create cell lysates, according to the kit manufacturer's protocol. The kit manufacturer's protocol is then followed to perform RT-qPCR for each sample using a pair of MYC-specific primers (e.g., SEQ ID NO: 4 and SEQ ID NO: 5) to detect MYC RNA, as well as a pair of beta-actin-specific primers (e.g., SEQ ID NO: 6 and SEQ ID NO: 7) to detect beta-actin RNA, which serves as a loading control. The relative expression levels of MYC and beta-actin RNAs are calculated using a standard curve generated from a dilution series of untreated cell lysates. The normalized level of MYC RNA following treatment with a test compound is calculated by dividing the relative expression level of MYC in the sample by the relative expression level of beta actin in the same sample. The value so obtained is presented as a percentage of that of the no-compound, solvent only (DMSO)-treated sample. A lower percentage of MYC RNA in a sample with respect to the DMSO-treated sample indicates greater percentage reduction in MYC RNA levels due to the test compound, and vice versa.

MDA-MB-231 = assay: CCK-8 cell viability assay, MDA-MB-231; conditions: Homo sapiens; CCK-8, MDA-MB-231, 2-day or 3-day incubation, cytotoxic effect
Experimental: (§1) The effect of test compounds on cell viability is determined using the CCK-8 assay kit (Dojindo CK04-1000) according to the following protocol. The human cancer cell lines (e.g., A549, HepG2, JeKo-1, MDA-MB-231, etc.) and non-cancer human cell lines (e.g., HEK-293, HaCaT, etc.), are seeded at 20,000 cells per well in a 96-well plate. After 1 day, the cells are treated with test compounds at various final concentrations (e.g., 10 nM, 31.6 nM, 100 nM, 316 nM, 1 μM, 3.16 μM, 10 μM, 20 μM, etc.). After a 2-day or 3-day incubation period, 10 μL of CCK-8 solution, which contains the WST-8 dye, is added to each well according to the kit manufacturer's protocol. After incubation for 1-4 hours, the absorbance at 450 nm is measured using a microplate reader. The absorbance at 450 nm measures the amount of WST-8 that is reduced to WST-8 formazan by cellular dehydrogenases, which is directly proportional to the number of living cells. The cytotoxic effect of test compounds at different concentrations is calculated by subtracting from 1 the ratio of absorbance of the compound-treated sample at 450 nm to that of the no-compound, solvent only (DMSO)-treated sample. A higher number indicates a greater cytotoxic effect of the test compound on cells (corresponding to a greater reduction in cellular dehydrogenase activity), and vice versa. The IC50 values for the cytotoxic effect of each test compound in A549, HepG2, JeKo-1, and/or MDA-MB-231 cells are determined by plotting a dose-response curve to calculate the concentration of test compound that produces half of the maximum cytotoxic effect. The cytotoxic effect and IC50 of test compounds are also measured in a non-cancer human cell line (e.g., HEK-293, and/or HaCaT) as a proxy for healthy cells to determine the therapeutic window of the test compounds (i.e., the concentration range at which the test compounds selectively kill cancer cells but not healthy cells). The therapeutic index of a test compound is defined herein as its IC50 in HEK-293 cells divided by its IC50 in HepG2 cells.

A549 = assay: CCK-8 cell viability assay, A549; conditions: Homo sapiens; CCK-8, A549, 2-day or 3-day incubation, cytotoxic effect
Experimental: The effect of test compounds on cell viability is determined using the CCK-8 assay kit (Dojindo CK04-1000) according to the following protocol. The human cancer cell lines (e.g., A549, HepG2, JeKo-1, MDA-MB-231, etc.) and non-cancer human cell lines (e.g., HEK-293, HaCaT, etc.), are seeded at 20,000 cells per well in a 96-well plate. After 1 day, the cells are treated with test compounds at various final concentrations (e.g., 10 nM, 31.6 nM, 100 nM, 316 nM, 1 μM, 3.16 μM, 10 μM, 20 μM, etc.). After a 2-day or 3-day incubation period, 10 μL of CCK-8 solution, which contains the WST-8 dye, is added to each well according to the kit manufacturer's protocol. After incubation for 1-4 hours, the absorbance at 450 nm is measured using a microplate reader. The absorbance at 450 nm measures the amount of WST-8 that is reduced to WST-8 formazan by cellular dehydrogenases, which is directly proportional to the number of living cells. The cytotoxic effect of test compounds at different concentrations is calculated by subtracting from 1 the ratio of absorbance of the compound-treated sample at 450 nm to that of the no-compound, solvent only (DMSO)-treated sample. […]

JeKo-1 = assay: CCK-8 cell viability assay, JeKo-1; conditions: Homo sapiens; CCK-8, JeKo-1, 2-day or 3-day incubation, cytotoxic effect
Experimental: as §1

HEK-293 [4] = assay: CellTiter-Glo 2.0 cell viability assay, HEK-293; conditions: Homo sapiens, HEK293, 48 h; CellTiter-Glo 2.0, HEK-293, 2-day incubation
Experimental: (§2) The effect of test compounds on cell viability is also determined using the CellTiter-Glo 2.0 assay kit (Promega G9241) according to the following protocol. The human cancer cell line (e.g., HepG2) and a non-cancer human cell line (e.g., HEK-293), are seeded at 20,000 cells per well in a 96-well plate. After 1 day, the cells are treated with test compounds at various concentrations (e.g., 10 nM, 31.6 nM, 100 nM, 316 nM, 1 μM, 3.16 μM, 10 μM, 20 μM, etc.). After a 2-day incubation period, the CellTiter-Glo 2.0 assay is performed according to the kit manufacturer's protocol. […] The contents are mixed for 2 minutes on an orbital shaker to induce cell lysis, and incubated for 10 minutes at room temperature, following which the luminescent signal is measured using a microplate reader. […] The cytotoxic effect of test compounds at different concentrations is calculated by subtracting from 1 the ratio of the luminescence signal of the compound-treated sample to that of the no-compound, solvent only (DMSO)-treated sample. […] The IC50 values for the cytotoxic effect of each test compound in HepG2 cells are determined by plotting a dose-response curve to calculate the concentration of test compound that produces half of the maximum cytotoxic effect. […]

HEK-293 [5] = assay: ApoTox-Glo Triplex assay (live-dead ratio), HEK-293; conditions: Homo sapiens, HEK293, 48 h, HEK-293, 2-day incubation
Experimental: The effects of test compounds on cell viability and apoptosis are determined using the ApoTox-Glo Triplex assay kit (Promega G6320) according to the following protocol. The human cancer cell line (e.g., HepG2) and a non-cancer human cell line (e.g., HEK-293), are seeded at 20,000 cells per well in a 96-well plate. After 1 day, the cells are treated with test compounds at various final concentrations (e.g., 10 nM, 31.6 nM, 100 nM, 316 nM, 1 μM, 3.16 μM, 10 μM, 20 μM, etc.). After a 2-day incubation period, the ApoTox-Glo Triplex assay is performed according to the kit manufacturer's protocol. […] After incubation for 30 minutes at 37° C., the fluorescence signal is measured at two wavelength sets (400Ex/505Em) and (485Ex/520Em) to assess live-cell protease activity and dead-cell protease activity respectively. […] After incubation for 30 minutes at room temperature, the luminescent signal is measured using a microplate reader. […]
The cytotoxic effect of test compounds according to the ApoTox-Glo Triplex assay is calculated as follows. The live-dead ratio is calculated by dividing the fluorescence signal for live-cell protease activity with the fluorescence signal for dead-cell protease activity. […]

HepG2 [6] = assay: CellTiter-Glo 2.0 cell viability assay, HepG2; conditions: Homo sapiens, 48 h; CellTiter-Glo 2.0, HepG2, 2-day incubation
Experimental: as §2

SMILES	% reduction of MYC protein (MYC protein [1]) [%]	IC50 (HepG2 [2]) [µM]	inhibition at 1 µM (MYC RNA) [%]	also measured
Cc1nc(N2CC(n3nc(-c4ccncc4)ccc3=O)C2)c2cnn(C)c2n1 [2-(1-(1,6-dimethyl-1H-pyrazolo[3,4-d]pyrimidin-4-yl)azetidin-3-yl)-6-(pyridin-4-yl)pyridazin-3(2H)-one]	19	–	–	–
Cc1cncc(N2CCC(Cn3nc(-n4cncn4)ccc3=O)CC2)n1 [2-((1-(6-methylpyrazin-2-yl)piperidin-4-yl)methyl)-6-(1H-1,2,4-triazol-1-yl)pyridazin-3(2H)-one]	–	11.2	–	–
O=c1ccc(-n2cccn2)nn1CC1CCN(c2ncnc3cc(F)ccc23)CC1 [2-((1-(7-fluoroquinazolin-4-yl)piperidin-4-yl)methyl)-6-(1H-pyrazol-1-yl)pyridazin-3(2H)-one]	–	–	12	% reduction of MYC protein (MYC protein [3]): 74%
O=c1ccc(-c2ccncc2)nn1CC1CN(c2ncnc3[nH]cnc23)C1 [2-((1-(9H-purin-6-yl)azetidin-3-yl)methyl)-6-(pyridin-4-yl)pyridazin-3(2H)-one]	–	6	–	–
Cc1nc(C)c(-c2ccc(=O)n(CC3CCN(c4ncnc5[nH]cnc45)CC3)n2)s1 [2-((1-(9H-purin-6-yl)piperidin-4-yl)methyl)-6-(2,4-dimethylthiazol-5-yl)pyridazin-3(2H)-one]	–	–	1	% reduction of MYC protein (MYC protein [3]): 17%
O=c1ccc(-n2cncn2)nn1CC1CCN(c2ccc3nnc(C(F)(F)F)n3n2)CC1 [6-(1H-1,2,4-triazol-1-yl)-2-((1-(3-(trifluoromethyl)-[1,2,4]triazolo[4,3-b]pyridazin-6-yl)piperidin-4-yl)methyl)pyridazin-3(2H)-one]	29	5.7	20	–
O=c1ccc(-n2cccn2)nn1CC1CCN(c2ccc3nnc(C(F)(F)F)n3n2)CC1 [6-(1H-pyrazol-1-yl)-2-((1-(3-(trifluoromethyl)-[1,2,4]triazolo[4,3-b]pyridazin-6-yl)piperidin-4-yl)methyl)pyridazin-3(2H)-one]	33	18.5	19	–
Cc1nc(C)c(-c2ccc(=O)n(CC3CCN(c4ncnc5ncccc45)CC3(F)F)n2)s1 (stereo not shown) [6-(2,4-dimethyl-1,3-thiazol-5-yl)-2-(3,3-difluoro-1-pyrido[2,3-d]pyrimidin-4-ylpiperidin-4-yl)methylpyridazin-3-one]	–	0.3	–	IC50 (MDA-MB-231): 1 µM; IC50 (A549): 1.8 µM; IC50 (JeKo-1): 0.2 µM
Cc1nc(C)c(-c2ccc(=O)n(CC3CCN(c4ncnc5ncccc45)CC3F)n2)s1 (stereo not shown) [6-(2,4-dimethyl-1,3-thiazol-5-yl)-2-(3-fluoro-1-pyrido[2,3-d]pyrimidin-4-ylpiperidin-4-yl)methylpyridazin-3-one]	–	0.5	–	IC50 (MDA-MB-231): 1.1 µM; IC50 (JeKo-1): 0.3 µM
Cc1nc(N2CCC(Cn3nc(-c4sc(C)nc4C)ccc3=O)CC2)c2ccncc2n1 [6-(2,4-dimethylthiazol-5-yl)-2-((1-(2-methylpyrido[3,4-d]pyrimidin-4-yl)piperidin-4-yl)methyl)pyridazin-3(2H)-one]	–	–	5	% reduction of MYC protein (MYC protein [3]): 16%
Cc1cc(N2CCC(Cn3nc(-c4sc(C)nc4C)ccc3=O)CC2)ncn1 [6-(2,4-dimethylthiazol-5-yl)-2-((1-(6-methylpyrimidin-4-yl)piperidin-4-yl)methyl)pyridazin-3(2H)-one]	–	–	19	% reduction of MYC protein (MYC protein [3]): 19%
Cc1cc(C)n(-c2ccc(=O)n(C3CCN(c4nc5cccnc5n4C)CC3)n2)n1 [6-(3,5-dimethyl-1H-pyrazol-1-yl)-2-(1-(3-methyl-3H-imidazo[4,5-b]pyridin-2-yl)piperidin-4-yl)pyridazin-3(2H)-one]	24	5.3	–	–
Cc1cc(C)n(-c2ccc(=O)n(CC3CN(c4ccc5nnc(C)n5n4)C3)n2)n1 [6-(3,5-dimethyl-1H-pyrazol-1-yl)-2-((1-(3-methyl-[1,2,4]triazolo[4,3-b]pyridazin-6-yl)azetidin-3-yl)methyl)pyridazin-3(2H)-one]	48	–	4	–
CC(=O)O[C@H]1C(=O)[C@@]2(C)[C@H]([C@H](OC(=O)c3ccccc3)[C@]3(O)C[C@H](OC(=O)[C@H](O)[C@@H](NC(=O)c4ccccc4)c4ccccc4)C(C)=C1C3(C)C)[C@]1(OC(C)=O)CO[C@@H]1C[C@@H]2O [paclitaxel, reference compound]	–	–	–	IC50 (HEK-293 [4]): 27 µM; IC50 (HEK-293 [5]): 6.9 µM; IC50 (HepG2 [6]): 7.5 µM
